We go through 5 compounds from publication PMC3272148 (2011).

The term Ki denotes a measure of affinity in units of concentration, obtained from inhibition or displacement. A high value points to lower affinity. A word on the Kd: it is the constant that tells how readily two partners part at equilibrium. Higher therefore signals weaker binding.

In assay [1] the target is T1, 5-HT2C receptor (Oryctolagus cuniculus, UniProt G1TAG7).
T1 sequence (G1TAG7 33-453): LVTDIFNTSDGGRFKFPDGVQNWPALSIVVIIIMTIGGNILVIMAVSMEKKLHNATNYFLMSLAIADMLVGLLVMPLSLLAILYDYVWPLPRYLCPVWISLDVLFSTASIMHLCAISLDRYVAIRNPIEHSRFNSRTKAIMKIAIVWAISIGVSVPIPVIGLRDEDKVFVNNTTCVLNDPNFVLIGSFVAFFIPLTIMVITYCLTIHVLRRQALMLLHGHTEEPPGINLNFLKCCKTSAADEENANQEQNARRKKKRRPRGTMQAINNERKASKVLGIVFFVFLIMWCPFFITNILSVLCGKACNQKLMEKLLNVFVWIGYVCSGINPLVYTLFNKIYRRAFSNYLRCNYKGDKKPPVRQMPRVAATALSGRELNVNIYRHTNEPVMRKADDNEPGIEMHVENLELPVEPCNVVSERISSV
The experiment in a line: [3H]mesulergine competition radioligand binding.

For assay [2], the target named is T2, dopamine1 (D1) receptor (Oryctolagus cuniculus, UniProt G1SML2). Kind of assay: [3H]SCH23390 competition radioligand binding.
T2 sequence (G1SML2 1-448): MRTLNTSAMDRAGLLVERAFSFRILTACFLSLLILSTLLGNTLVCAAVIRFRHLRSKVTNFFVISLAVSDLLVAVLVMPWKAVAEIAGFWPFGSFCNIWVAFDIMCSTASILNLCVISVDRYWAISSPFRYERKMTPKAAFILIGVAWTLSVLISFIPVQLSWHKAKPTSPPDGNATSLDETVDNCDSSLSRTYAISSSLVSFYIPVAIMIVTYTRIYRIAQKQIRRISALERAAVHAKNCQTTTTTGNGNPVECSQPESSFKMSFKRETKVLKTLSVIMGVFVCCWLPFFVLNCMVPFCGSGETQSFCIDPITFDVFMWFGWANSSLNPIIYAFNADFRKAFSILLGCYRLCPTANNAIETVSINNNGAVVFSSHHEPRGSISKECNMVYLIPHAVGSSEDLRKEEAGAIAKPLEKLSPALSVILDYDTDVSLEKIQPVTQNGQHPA
Assay [3] has as its target T2, dopamine1 (D1) receptor. The experiment in a line: [3H]SCH23390 saturation radioligand binding.
For assay [4], the target named is serotonin2A (5-HT2A) receptor (Oryctolagus cuniculus, UniProt G1SYA7). The experiment in a line: [3H]ketanserin saturation radioligand binding.
Sequence of serotonin2A (5-HT2A) receptor (G1SYA7 1-469): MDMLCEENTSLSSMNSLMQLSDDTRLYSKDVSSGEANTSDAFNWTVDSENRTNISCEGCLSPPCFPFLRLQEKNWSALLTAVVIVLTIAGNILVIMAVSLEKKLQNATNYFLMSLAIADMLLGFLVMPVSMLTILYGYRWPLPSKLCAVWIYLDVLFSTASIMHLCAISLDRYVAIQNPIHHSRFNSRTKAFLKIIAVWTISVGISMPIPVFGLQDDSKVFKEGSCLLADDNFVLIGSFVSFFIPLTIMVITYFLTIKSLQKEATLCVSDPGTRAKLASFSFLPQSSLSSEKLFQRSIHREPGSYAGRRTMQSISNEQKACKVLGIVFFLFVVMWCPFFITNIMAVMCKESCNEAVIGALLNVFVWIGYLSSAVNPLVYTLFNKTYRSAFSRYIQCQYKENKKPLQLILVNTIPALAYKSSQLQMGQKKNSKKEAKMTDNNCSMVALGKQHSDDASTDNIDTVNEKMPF
Assay [5] addresses T1, 5-HT2C receptor. Kind of assay: [3H]mesulergine saturation radioligand binding.

For the compound `COc1cc(CC(C)N)c(OC)cc1I` (racemic) [DOI, (±)-1-(2,5-dimethoxy-4-iodophenyl)-2-aminopropane], the Ki on 5-HT2C receptor [1] stood at 73.5 nM. Consider `CCN(CC)C(=O)[C@@H]1C=C2c3cccc4[nH]cc(c34)C[C@H]2N(C)C1` [LSD], for which the results for the inhibition constant Ki on 5-HT2C receptor [1] and at dopamine1 (D1) receptor [2] were 7.5 nM and 161 nM, respectively. In the case of `CN1CCc2cc(Cl)c(O)cc2[C@@H](c2ccccc2)C1` [SCH23390], the “[3H]SCH23390 saturation radioligand binding (Bmax)” value at dopamine1 (D1) receptor [3] was “Dopamine1 receptor density was quantified using eight concentrations of the antagonist radioligand, [^3H]SCH23390”.

`O=C(c1ccc(F)cc1)C1CCN(CCn2c(=O)[nH]c3ccccc3c2=O)CC1` [ketanserin] returned a dissociation constant (Kd) in assay [4] of 0.21 nM. For the compound `CN1C[C@@H](NS(=O)(=O)N(C)C)C[C@@H]2c3cccc4c3c(cn4C)C[C@H]21` [mesulergine], the “[3H]mesulergine saturation radioligand binding (Bmax)” value on 5-HT2C receptor [5] is “Serotonin2C receptor density was quantified using eight concentrations of the antagonist radioligand, [^3H]mesulergine”.
